Assay results taken from patent EP3714904B1, “IMINODIACETIC ACID SUBSTITUTED CYCLODEXTRINS AS POTENTIATORS OF BETA-LACTAM ANTIBIOTICS” (NATIONAL CENTER FOR SCIENTIFIC RESEARCH "DEMOKRITOS" (NCSRD), priority 2019, dated 2020).
Read-outs that look alike come from different tables or passages of the source.

Legend:
Test in all cases: MIC of β-lactams alone or with 50 µM IDACYD against clinical isolates
Assay type in all cases: cell-based
[1] = test system: Klebsiella pneumoniae; details: for MIC: Klebsiella pneumoniae, alone; for Imipenem + α-IDACYD MIC / Meropenem + α-IDACYD MIC: IDACYD 50 μM
Description: Further the in-vitro inhibitory activity of IDACYDs was tested against highly resistant pathogens. […] Table 2: Collection of clinical isolates used for in-vitro evaluation

[2] = test system: Serratia marcescens; details: Serratia marcescens, isolate EUG-815 (VIM, CMY), alone
Description: (§1) Further the in-vitro inhibitory activity of IDACYDs was tested against highly resistant pathogens. Tables 3, 4 and 5 show the effect of IDACYDs using a collection of 36 highly resistant Gram negative strains (Table 2, Kirby-Bauer disc diffusion method) producing NDM, VIM and IMP type MBLs as well as 6 isolates expressing serine beta-lactamases (ESBLs, AmpCs). […] Clinical isolates co-expressing ESBLs and/or AmpC β-lactamases along with MBLs where re-sensitized to both imipenem and meropenem, as expected. Table 2: Collection of clinical isolates used for in-vitro evaluation

[3] = test system: Providencia stuartii; details: Providencia stuartii, alone
Description: as §1

[4] = test system: Proteus mirabilis; details: Proteus mirabilis, alone
Description: as §1

[5] = test system: Acinetobacter baumannii; details: Acinetobacter baumannii, alone, read-out: Imipenem MIC
Description: as §1

[6] = test system: Enterobacter gergoviae; details: Pluralibacter gergoviae, alone, read-out: Imipenem MIC
Description: as §1

[7] = test system: Escherichia coli; details: Escherichia coli, alone
Description: as §1

Structure (SMILES): C[C@@H](O)[C@H]1C(=O)N2C(C(=O)O)=C(SCCN=CN)C[C@H]12 [Imipenem, reference compound]
- MIC ([1]; Table 5, Kpn ESDY 5742 (IMP-1), read-out: Imipenem MIC): 8 µg/mL
- MIC ([1]; Table 5, Kpn LA 26 (NDM-1), read-out: Imipenem MIC): 16 µg/mL
- MIC ([1]; Table 5, Kpn LA 34 (VIM-1 CMY), read-out: Imipenem MIC): 16 µg/mL
- MIC ([1]; Table 5, Kpn LA 82/16 (VIM-1), read-out: Imipenem MIC): 64 µg/mL
- MIC ([1]; Table 5, Kpn LA 109/16 (VIM-1), read-out: Imipenem MIC): 16 µg/mL
- MIC ([1]; Table 5, Kpn LA419/16 (NDM-1), read-out: Imipenem MIC): 8 µg/mL
- MIC ([1]; Table 5, Kpn LAR 37II/15 (NDM-1, VIM-1, CTXM), read-out: Imipenem MIC): 64 µg/mL
- MIC ([1]; isolate 6/100 (VIM), read-out: Imipenem MIC): 32 µg/mL
- MIC ([1]; isolate 2489 (NDM), read-out: Imipenem MIC): 32 µg/mL
- MIC ([1]; isolate 2685 (VIM, CMY, CTXM), read-out: Imipenem MIC): 32 µg/mL
- MIC ([1]; isolate ALX-47 (OXA-48,CTX-M), read-out: Imipenem MIC): 4 µg/mL
- MIC ([1]; isolate ESDY-1780 (VIM, KPC), read-out: Imipenem MIC): 16 µg/mL
- MIC ([1]; isolate ESDY-2681 (VIM-27), read-out: Imipenem MIC): 16 µg/mL
- MIC ([1]; isolate ESDY-5742 (IMP), read-out: Imipenem MIC): 8 µg/mL
- MIC ([1]; isolate EY-20S (CMY, SHV), read-out: Imipenem MIC): 2 µg/mL
- MIC ([1]; isolate IT-17829 (CTXM, SHV), read-out: Imipenem MIC): 1 µg/mL
- MIC ([1]; isolate L078/11 (KPC), read-out: Imipenem MIC): 32 µg/mL
- MIC ([1]; isolate LA-26 (NDM), read-out: Imipenem MIC): 16 µg/mL
- MIC ([1]; isolate LA-27 (NDM, CTXM), read-out: Imipenem MIC): 8 µg/mL
- MIC ([1]; isolate LA-28 (NDM, CTXM), read-out: Imipenem MIC): 8 µg/mL
- MIC ([1]; isolate LA-34 (VIM, CMY), first entry of Table 3, read-out: Imipenem MIC): 32 µg/mL
- MIC ([1]; isolate LA-34 (VIM, CMY), second entry of Table 3, read-out: Imipenem MIC): 32 µg/mL
- MIC ([1]; isolate LA-38 (NDM), read-out: Imipenem MIC): 8 µg/mL
- MIC ([1]; isolate LA-82/16 (VIM, SHV), read-out: Imipenem MIC): 8 µg/mL
- MIC ([1]; isolate LA-109/16 (VIM, CTXM), read-out: Imipenem MIC): 16 µg/mL
- MIC ([1]; isolate LA-419/16 (NDM,CTXM), read-out: Imipenem MIC): 4 µg/mL
- MIC ([1]; isolate LA-470/17 (NDM), read-out: Imipenem MIC): 8 µg/mL
- MIC ([1]; isolate LAR-26I/15 (NDM, VIM, CTXM), read-out: Imipenem MIC): 16 µg/mL
- MIC ([1]; isolate LAR-37II/15 (NDM, VIM, CTXM), read-out: Imipenem MIC): 64 µg/mL
- MIC ([1]; isolate LAR-38I/15 (VIM, NDM, CTXM), read-out: Imipenem MIC): 4 µg/mL
- MIC ([1]; isolate LAR-40II/15 (KPC), read-out: Imipenem MIC): 16 µg/mL
- MIC ([1]; isolate LAR-2873 (VIM-12), read-out: Imipenem MIC): 4 µg/mL
- MIC ([1]; isolate LAR-7547 (NDM, VIM, CTXM), read-out: Imipenem MIC): 64 µg/mL
- MIC ([1]; isolate SEC-2 (VIM), read-out: Imipenem MIC): 32 µg/mL
- MIC ([1]; isolate SEC-4 (VIM), read-out: Imipenem MIC): 64 µg/mL
- MIC ([1]; isolate TZAN-59 (β-lactamase: None), read-out: Imipenem MIC): 1 µg/mL
- MIC ([1]; isolate UoA 12/227 (VIM), read-out: Imipenem MIC): 8 µg/mL
- MIC ([1]; isolate UoA 1995 (VIM), read-out: Imipenem MIC): 8 µg/mL
- MIC ([2]; read-out: Imipenem MIC): 16 µg/mL
- MIC ([3]; isolate ALX- 21 (VIM, VEB), read-out: Imipenem MIC): 8 µg/mL
- MIC ([3]; isolate ALX-27 (VIM), read-out: Imipenem MIC): 16 µg/mL
- MIC ([3]; isolate ESDY-4559 (VIM), read-out: Imipenem MIC): 4 µg/mL
- MIC ([3]; isolate ESDY-4563 (VIM, VEB), read-out: Imipenem MIC): 4 µg/mL
- MIC ([4]; Table 5, Pr m ESDY 15315 (VIM-1, CMY), read-out: Imipenem MIC): 16 µg/mL
- MIC ([4]; isolate ALX-13 (VIM, VEB), read-out: Imipenem MIC): 8 µg/mL
- MIC ([4]; isolate ESDY-17 (VIM, CMY), read-out: Imipenem MIC): 4 µg/mL
- MIC ([4]; isolate ESDY-15184 (VIM, CMY), read-out: Imipenem MIC): 8 µg/mL
- MIC ([4]; isolate ESDY-15315 (VIM, CMY), read-out: Imipenem MIC): 16 µg/mL
- MIC ([5]; isolate TZAN-40 (VIM, OXA-58)): 4 µg/mL
- MIC ([5]; isolate TZAN-42 (VIM, OXA-58)): 8 µg/mL
- MIC ([6]; isolate AK-5227 (VIM, CMY)): 8 µg/mL
- MIC ([6]; isolate AK-5240 (VIM, CMY)): 8 µg/mL
- MIC ([7]; isolate TZAN-116 (VIM), read-out: Imipenem MIC): 4 µg/mL
- MIC ([7]; isolate TZAN-541 (VIM), read-out: Imipenem MIC): 4 µg/mL

Structure (SMILES): CO[C@@H]1[C@@H](OC)[C@H]2O[C@H]3[C@H](OC)[C@@H](OC)[C@@H](O[C@H]4[C@H](OC)[C@@H](OC)[C@@H](O[C@H]5[C@H](OC)[C@@H](OC)[C@@H](O[C@H]6[C@H](OC)[C@@H](OC)[C@@H](O[C@H]7[C@H](OC)[C@@H](OC)[C@@H](O[C@@H]1[C@@H](CN(CC(=O)O)CC(=O)O)O2)O[C@@H]7CN(CC(=O)O)CC(=O)O)O[C@@H]6CN(CC(=O)O)CC(=O)O)O[C@@H]5CN(CC(=O)O)CC(=O)O)O[C@@H]4CN(CC(=O)O)CC(=O)O)O[C@@H]3CN(CC(=O)O)CC(=O)O [α-IDACYD]
- Imipenem + α-IDACYD MIC ([1]; Kpn ESDY 5742 (IMP-1)): <0.25 µg/mL
- Meropenem + α-IDACYD MIC ([1]; Kpn ESDY 5742 (IMP-1)): <0.25 µg/mL
- Imipenem + α-IDACYD MIC ([1]; Kpn LA 34 (VIM-1 CMY)): <0.5 µg/mL
- Meropenem + α-IDACYD MIC ([1]; Kpn LA 34 (VIM-1 CMY)): <0.5 µg/mL
- Imipenem + α-IDACYD MIC ([1]; Kpn LA 82/16 (VIM-1)): <0.25 µg/mL
- Meropenem + α-IDACYD MIC ([1]; Kpn LA 82/16 (VIM-1)): <0.25 µg/mL
- Imipenem + α-IDACYD MIC ([1]; Kpn LA 109/16 (VIM-1)): <0.25 µg/mL
- Meropenem + α-IDACYD MIC ([1]; Kpn LA 109/16 (VIM-1)): <0.25 µg/mL
- Imipenem + α-IDACYD MIC ([1]; Kpn LA419/16 (NDM-1)): <0.25 µg/mL
- Meropenem + α-IDACYD MIC ([1]; Kpn LA419/16 (NDM-1)): <0.25 µg/mL

Structure (SMILES): CC(C)(O/N=C(\C(=O)N[C@@H]1C(=O)N2C(C(=O)[O-])=C(C[n+]3ccccc3)CS[C@H]12)c1csc(N)n1)C(=O)O [Ceftazidime, reference compound]
- MIC ([1]; isolate ALX-47 (OXA-48,CTX-M), read-out: Ceftazidime MIC): > 256 µg/mL
- MIC ([1]; isolate ESDY-5742 (IMP), read-out: Ceftazidime MIC): > 256 µg/mL
- MIC ([1]; isolate LA-28 (NDM, CTXM), read-out: Ceftazidime MIC): > 256 µg/mL
- MIC ([1]; isolate LA-82/16 (VIM, SHV), read-out: Ceftazidime MIC): > 256 µg/mL
- MIC ([1]; isolate LA-109/16 (VIM, CTXM), read-out: Ceftazidime MIC): > 256 µg/mL
- MIC ([1]; isolate LAR-4011/15, read-out: Ceftazidime MIC): 32 µg/mL
- MIC ([1]; isolate UoA 12/227 (VIM), read-out: Ceftazidime MIC): > 256 µg/mL
- MIC ([1]; isolate UoA 1995 (VIM), read-out: Ceftazidime MIC): > 256 µg/mL
- MIC ([2]; read-out: Ceftazidime MIC): > 256 µg/mL
- MIC ([3]; isolate ALX- 21 (VIM, VEB), read-out: Ceftazidime MIC): 128 µg/mL
- MIC ([3]; isolate ESDY-4559 (VIM), read-out: Ceftazidime MIC): 8 µg/mL
- MIC ([4]; isolate ESDY-15184 (VIM, CMY), read-out: Ceftazidime MIC): > 256 µg/mL
- MIC ([7]; isolate TZAN-116 (VIM), read-out: Ceftazidime MIC): > 256 µg/mL
